Assay results published in patent publication US10028992B2, “Methods of treating muscular dystrophy” (BOARD OF REGENTS OF THE NEVADA SYSTEM OF HIGHER EDUCATION …, priority 2012, dated 2018).
Read-outs that look alike come from different tables or passages of the source.

System: α7 integrin promoter
Assay: muscle cell-based assay: α7βgal+/− myoblasts/myotubes, LacZ reporter, β-galactosidase cleavage of FDG
Design: species or system mouse; Results in α7+/− β-galactosidase assay: scale not given here
Settings: for Results in α7+/− β-galactosidase assay: Myoblasts; for EC50: read-out: Fit LogAC50 (converted)
Method in brief: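 Fluorescein generated from FDG by β-galactosidase reports α7 integrin promoter activity in differentiated myoblasts from α7+/− LacZ knock-in pups. Screening hits then went to dose-response, western blotting and a myostatin counterscreen.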

Structure (SMILES) | Results in α7+/− β-galactosidase assay (0.5 uM) | Results in α7+/− β-galactosidase assay (1 uM) | Results in α7+/− β-galactosidase assay (5 uM) | Results in α7+/− β-galactosidase assay (10 uM) | Results in α7+/− β-galactosidase assay (20 uM) | Results in α7+/− β-galactosidase assay (40 uM) | Results in a α7+/− β-galactosidase assay, Myotubes, 0.5 uM (Myotubes, compound at 0.5 uM) | Results in a α7+/− β-galactosidase assay, Myotubes, 1 uM (Myotubes, compound at 1 uM) | Results in a α7+/− β-galactosidase assay, Myotubes, 5 uM (Myotubes, compound at 5 uM) | Results in a α7+/− β-galactosidase assay, Myotubes, 10 uM (Myotubes, compound at 10 uM) | Results in a α7+/− β-galactosidase assay, Myotubes, 20 uM (Myotubes, compound at 20 uM) | Results in a α7+/− β-galactosidase assay, Myotubes, 40 uM (Myotubes, compound at 40 uM) | further results
Cc1ccccc1NC(=O)c1ccc2c(O)c(Sc3ccccc3)c(=O)[nH]c2c1 [drawing 634] | −0.01711 | −0.1427 | 0.008423 | −0.03481 | −0.0939 | −0.1611 |  |  |  |  |  |  | 
CC(=O)Nc1nonc1-c1nc2ccccc2n1CCC(C)C [Compound 219] |  |  |  |  |  |  |  |  |  |  |  |  | EC50 (Mus musculus, given as log AC50 (negative values)): 11.2 µM; Score (Table 12 compound data): 42; Fit Curve Class (curve class number, key not given): 2.2; Fit HillSlope (curve fit): 1.5936; Fit Zero Activity [%] (curve fit, activity at zero concentration): −7.5793%
CN(Cc1c(C(=O)N/N=C/c2cccc(F)c2)nnn1-c1nonc1N)c1ccccc1 [Compound 97] |  |  |  |  |  |  |  |  |  |  |  |  | AC50 (Mus musculus, Table 12, log of AC50, given with negative sign, unit of AC50 not given, read-out: Fit Log AC50 (converted)): 5.62 µM; Fit HillSlope (Table 12, curve fit): 3.132; Fit Zero Activity [%] (Table 12, fitted activity at zero concentration): 1.2108%; Fit Curve Class (Table 12, key not given): 2.2; Score (Table 12 Compound data, concentration-response curve fit): 43
COC(=O)c1ccc(/N=N/c2ccccc2)cc1 [drawing 405] |  |  |  |  |  |  | −0.111 | 0.1978 | −0.1462 | −0.2093 | −0.1861 | −0.2357 | 
O=C(O)c1csc(-c2cccs2)n1 [drawing 362] |  |  |  |  |  |  | 0.2703 | 0.2837 | 0.2451 | −0.02819 | −0.1366 | −0.1007 | 
CCc1nc(/C=C2\C(=O)Nc3ccccc32)c[nH]1 [drawing 602] | 0.2737 | 0.07781 | 0.08036 | 0.1565 | 0.1925 | −0.2038 |  |  |  |  |  |  | 
COc1ccc2c(c1)/C(=C\c1cccc(/C=C3/C(=O)Nc4ccc(OC)cc43)n1)C(=O)N2 [drawing 443] |  |  |  |  |  |  | −0.1407 | −0.2351 | −0.5201 | −0.5078 | −0.5433 | −0.6161 | 
Cc1nc2c([nH]1)OC(N)=C(C#N)C21CCN(Cc2ccccc2)CC1 [Compound 132] |  |  |  |  |  |  |  |  |  |  |  |  | Fit Curve Class: 2.1; Fit HillSlope: 4.9549; Fit Zero Activity [%]: 12.8108%; Score: 43; EC50 (Mus musculus): 12.6 µM
COc1ccc(NC(=O)C2(N(C(=O)Cn3nnnc3N)c3ccc(OC)cc3)CCCCC2)cc1 [drawing 532] | 0.2391 | 0.1433 | 0.4897 | −0.1284 | −0.274 | −0.3931 |  |  |  |  |  |  | 
O=C(Cn1nc(-c2ccc(Cl)cc2)ccc1=O)N1CCC2(CC1)OCCO2 [drawing 395] |  |  |  |  |  |  |  |  |  |  |  |  | Results in a α7+/− β-galactosidase assay, Myotubes, 0.5 uM: 0.1803; Results in a α7+/− β-galactosidase assay, Myotubes, 1 uM: 0.1627; Results in a α7+/− β-galactosidase assay, Myotubes, 5 uM: −0.1502; Results in a α7+/− β-galactosidase assay, Myotubes, 10 uM: −0.1782; Results in a α7+/− β-galactosidase assay, Myotubes, 20 uM: −0.08792; Results in a α7+/− β-galactosidase assay, Myotubes, 40 uM: −0.2213
O=C1Cc2ccccc2/C1=C\c1ccc([N+](=O)[O-])cc1 [drawing 703] | 0.04429 | −0.00937 | 0.02036 | 0.1452 | −0.2086 | −0.4972 |  |  |  |  |  |  | 
COc1ccccc1CC(=O)Nc1cc(S(=O)(=O)N2CCOCC2)ccc1N1CCOCC1 [drawing 491] |  |  |  |  |  |  | 0.003263 | 0.04702 | −0.2793 | 0.1263 | −0.1143 | 0.0714 | 
NS(=O)(=O)c1ccc(NC(=O)CN2CCc3ccccc32)cc1 [drawing 446] |  |  |  |  |  |  | −0.03601 | −0.07498 | 0.1476 | −0.1666 | −0.05843 | −0.06764 | 
